Experimental data as given in patent US20250346587A1, “NITROGEN-CONTAINING FIVE-MEMBERED HETEROCYCLIC DERIVATIVES AS CHECKPOINT KINASE 1 INHIBITOR AND USES THEREOF” (SPEROGENIX THERAPEUTICS LIMITED, priority 2022, published 2025).
Converted amounts (≈) assume the structure as drawn.

Assays:
[1] = target: CHK-1 kinase (Homo sapiens (Human), UniProt O14757); assay: CHK-1 % inhibition kinase assay (TR-FRET); assay type: biochemical; conditions: ATP 15 μM; for inhibition at 0.03 µM / inhibition at 0.3 µM: CHK1 enzyme; for inhibition at 0.03 µM: compound 30 nM; for inhibition at 0.3 µM: compound 300 nM; for IC50: TR-FRET, read-out: CHK1 IC50
Sequence of CHK-1 kinase (O14757 whole entry): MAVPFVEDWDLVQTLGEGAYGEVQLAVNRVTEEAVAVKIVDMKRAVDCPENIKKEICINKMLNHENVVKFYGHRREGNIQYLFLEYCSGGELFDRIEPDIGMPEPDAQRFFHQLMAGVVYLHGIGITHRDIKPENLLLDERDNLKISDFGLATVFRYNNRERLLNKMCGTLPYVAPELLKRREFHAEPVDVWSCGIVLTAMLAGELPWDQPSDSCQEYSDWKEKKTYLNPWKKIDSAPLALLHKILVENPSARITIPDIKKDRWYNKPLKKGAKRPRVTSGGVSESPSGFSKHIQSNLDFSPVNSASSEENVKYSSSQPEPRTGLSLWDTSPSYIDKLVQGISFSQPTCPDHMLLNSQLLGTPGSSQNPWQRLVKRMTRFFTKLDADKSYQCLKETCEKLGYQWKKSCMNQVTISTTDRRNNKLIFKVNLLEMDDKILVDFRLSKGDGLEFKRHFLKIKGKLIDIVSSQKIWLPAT
Experimental: Inhibition of CHK-1 kinase or percent inhibition at defined concentrations was determined by TR-FRET assay. Kinase reactions were performed in a 20 μL volume in low-volume 384-well plates (Cat #Corning 4511). The concentration of substrate Fluorescein-CREBtide was maintained at 0.2 μM in the assay, and the kinase reaction buffer consisted of 50 mM HEPES pH 7.5, 0.01% BRIJ-35, 10 mM MgCl2, 1 mM EGTA. Serially diluted compounds (3-fold) in DMSO (0.5% in final reaction) were incubated with cocktail of CHK-1 kinase (6 nM; Cat #PR3959B, ThermoFisher), Fluorescein-CREBtide (0.2 μM; Cat #PV3508, ThermoFisher), ATP (15 μM; Cat #A1852, Sigma), and kinase reaction buffer. After 1 hour kinase reactions at room temperature, 10 μL of Detection mix (8 nM LanthaScreen® Tb-CREB [pSer133] antibody, Cat #PV3542, ThermoFisher with 20 mM EDTA in TR-FRET Buffer, Cat #PV3574, ThermoFisher) was added, and the plate was read with a plate reader (Synergy™ NEO; Biotek) for TR-FRET.
The resulting TR-FRET emission ratio was used to calculate the percent inhibition by normalizing to the control using the following formula: […]

[2] = Microsomal stability assay, human liver microsome; assay type: in vitro ADME; conditions: liver microsomes, pH 7.4, 0.2 mg/mL, 1 μM compound, 37° C., read-out: Clint HLM
Experimental: (§1) Incubation mixture contained 0.2 mg/mL microsomes, 1 mmol NADPH, and test compound at 1 μM in 100 mmol potassium phosphate buffer at pH 7.4. The mixtures were incubated at 37° C. for 5, 15, and 30 minutes. Aliquots of the mixtures were taken at 0, 5, 15 and 30 minutes and quenched with chilled Acetonitrile:Methanol (50:50) containing internal standard. Following completion of incubation, samples were centrifuged at 4,000 rpm at 4° C. The supernatant was analyzed by LC-MS/MS and half-life, as well as intrinsic clearance (Clint), were calculated.

[3] = Microsomal stability assay, mouse liver microsome; assay type: in vitro ADME; conditions: liver microsomes, pH 7.4, 0.2 mg/mL, 1 μM compound, 37° C., read-out: Clint MLM
Experimental: as §1

[4] = Microsomal stability assay, rat liver microsome; assay type: in vitro ADME; conditions: liver microsomes, pH 7.4, 0.2 mg/mL, 1 μM compound, 37° C., read-out: Clint RLM
Experimental: as §1

[5] = Kinetic solubility assay (nephelometry); conditions: PBS, 37 °C, pH 7.4, aqueous buffer, kinetic from dmso stock
Experimental: Test articles were serially diluted in DMSO from concentration range of 10 mM to 0.078 mM in 96 well v-bottom dilution plate (#3363, Corning). 1 μL of test article from each well was transferred to 96 well flat bottom clear plates (#655101, Greiner) containing 99 μL of PBS at pH-7.4, which makes the test drug final concentration range from 100 μM to 0.78 μM. Samples were incubated for 1 hour at 37° C. followed by measurement of light scattering at 625 nm with a laser based micro plate Nephelometer (Nephlostar Plus, BMG Labtech). Solubility concentration (μM) was then calculated by segmental regression with Neplometer as Readout.

Structure (SMILES)	inhibition at 0.03 µM [1] [%]	inhibition at 0.3 µM [1] [%]	microsomal CLint at 1 μM [2] [µL/min/mg]	microsomal CLint at 1 μM [3] [µL/min/mg]	microsomal CLint at 1 μM [4] [µL/min/mg]	solubility kinetic at 1 h [5] [µM]	IC50 [1] [nM]
CCC(C)N1CC(Oc2ccccc2-c2cc(Nc3cnc(C#N)cn3)no2)C1 (stereo not drawn) [Compound 1.18, 5-(5-(2-(1-sec-butyl-azetidin-3-yloxy)phen-yl)isoxazol-3-ylamino)-pyrazine-2-carbonitrile]	4	28	145	297	130	48 (≈ 18.7 µg/mL)	
COc1ccccc1-c1cc(Nc2cnc(C#N)cn2)no1 [Compound 1.11, 5-(5-(2-methoxyphenyl)isoxazol-3-ylamino) pyrazine-2-carbonitrile]	12	36	140	382	79	14 (≈ 4.11 µg/mL)	
N#Cc1cnc(Nc2cc(-c3ccccc3O[C@H]3CC[C@@H](N)CC3)on2)cn1 [Compound 1.15, 5-(5-(2-((1s,4s)-4-aminocyclohexyloxy)phenyl)isoxazol-3-ylamino) pyrazine-2-carbonitrile]	39	79	12	25	33	100 (≈ 37.6 µg/mL)	
CC(C)N1CC(Oc2ccccc2-c2cc(Nc3cnc(C#N)cn3)no2)C1 [Compound 1.13, 5-(5-(2-(1-isopropylazetidin-3-yloxy)phenyl)isoxazol-3-ylamino) pyrazine-2-carbonitrile]	15	32	86	221	84	11.9 (≈ 4.48 µg/mL)	
CN1CC(Oc2ccccc2-c2cc(Nc3cnc(C#N)cn3)no2)C1 [Compound 1.10, 5-(5-(2-(1-methylazetidin-3-yloxy)phenyl)isoxazol-3-ylamino) pyrazine-2-carbonitrile]	44	65	80	243	49	30.5 (≈ 10.6 µg/mL)	
N#Cc1cnc(Nc2cc(-c3cc4ccccc4cc3OCC3CCNCC3)[nH]n2)cn1 [Compound 2.1, 5-(5-(3-(piperidin-4-ylmethoxy)naphthalen-2-yl)-1H-pyrazol-3-ylamino) pyrazine-2-carbonitrile]	27	91	25	101	36	34.7 (≈ 14.8 µg/mL)	2.46
CC(C)CC(C)N1CC(Oc2ccccc2-c2cc(Nc3cnc(C#N)cn3)no2)C1 (stereo not drawn) [Compound 1.12, 5-(5-(2-(1-(4-methylpentan-2-yl)azetidin-3-yloxy)phenyl)isoxazol-3-ylamino) pyrazine-2-carbonitrile]	21	30	478	473	266	38.4 (≈ 16.1 µg/mL)	
N#Cc1cnc(Nc2cc(-c3cc4ccccc4cc3OCC3CCNC3)[nH]n2)cn1 (stereo not drawn) [Compound 2.4, 5-(5-(3-(pyrrolidin-3-ylmethoxy)naphthalen-2-yl)-1H-pyrazol-3-ylamino) pyrazine-2-carbonitrile]	70	97	33	142	94	7.77 (≈ 3.2 µg/mL)	2.34
N#Cc1cnc(Nc2cc(-c3ccccc3OC3CCNC3)on2)cn1 (stereo not drawn) [Compound 1.14, 5-(5-(2-(pyrrolidin-3-yloxy)phenyl)isoxazol-3-ylamino) pyrazine-2-carbonitrile]	37	60	34	56	23	39.6 (≈ 13.8 µg/mL)	
N#Cc1cnc(Nc2cc(-c3cc4ccccc4cc3OCC3CCCNC3)[nH]n2)cn1 (stereo not drawn) [Compound 2.5, 5-(5-(3-(piperidin-3-ylmethoxy)naphthalen-2-yl)-1H-pyrazol-3-ylamino) pyrazine-2-carbonitrile]	72	96	14	111	124	41.6 (≈ 17.7 µg/mL)	4.36
N#Cc1cnc(Nc2cc(-c3ccccc3OCCN)on2)cn1 [Compound 1.7, 5-(5-(2-(2-aminoethoxy)phenyl)isoxazol-3-ylamino) pyrazine-2-carbonitrile]	36	82	75	114	118	39.2 (≈ 12.6 µg/mL)	
N#Cc1cnc(Nc2cc(-c3ccccc3OCC3CCNC3)on2)cn1 (stereo not drawn) [Compound 1.23, 5-(5-(2-(pyrrolidin-3-ylmethoxy)phenyl)isoxazol-3-ylamino) pyrazine-2-carbonitrile]	82	99	37	52	50	46.6 (≈ 16.9 µg/mL)	
N#Cc1cnc(Nc2cc(-c3ccccc3OCC3CNC3)on2)cn1 [Compound 1.17, 5-(5-(2-(azetidin-3-ylmethoxy)phenyl)isoxazol-3-ylamino) pyrazine-2-carbonitrile]	69	95	26	50	43	48 (≈ 16.7 µg/mL)	
N#Cc1cnc(Nc2cc(-c3cc4ccccc4cc3OCC3CNCCO3)[nH]n2)cn1 (stereo not drawn) [Compound 2.3, 5-(5-(3-(morpholin-2-ylmethoxy)naphthalen-2-yl)-1H-pyrazol-3-ylamino) pyrazine-2-carbonitrile]	41	81	26	85	39	39.7 (≈ 17 µg/mL)	8.15
N#Cc1cnc(Nc2cc(-c3ccccc3OC3CC(N)C3)on2)cn1 (stereo not drawn) [Compound 1.20, 5-(5-(2-(3-aminocyclobutoxy)phenyl)isoxazol-3-ylamino) pyrazine-2-carbonitrile]	60.2	91.9	47	86	46	29.4 (≈ 10.2 µg/mL)	
N#Cc1cnc(Nc2cc(-c3cc4ccccc4cc3OCCN)[nH]n2)cn1 [Compound 2.6, 5-((5-(3-(2-aminoethoxy)naphthalen-2-yl)-1H-pyrazol-3-yl)amino) pyrazine-2-carbonitrile]	61	90	3	153	58	18.8 (≈ 6.98 µg/mL)	15.7
CN1CCCC(COc2ccccc2-c2cc(Nc3cnc(C#N)cn3)no2)C1 (stereo not drawn) [Compound 1.16, 5-(5-(2-((1-methylpiperidin-3-yl)methoxy)phenyl)isoxazol-3-ylamino) pyrazine-2-carbonitrile]	9	75	117	141	138	38.2 (≈ 14.9 µg/mL)	
N#Cc1cnc(Nc2cc(-c3ccccc3OC3CC4(CNC4)C3)on2)cn1 [Compound 1.21, 5-(5-(2-(2-azaspiro[3.3]heptan-6-yloxy)phenyl)isoxazol-3-ylamino) pyrazine-2-carbonitrile]	78.7	95.5	20	18	37	18.8 (≈ 7.04 µg/mL)	
N#Cc1cnc(Nc2cc(-c3cc4ccccc4cc3OCCCN)[nH]n2)cn1 [Compound 2.7, 5-(5-(3-(3-aminopropoxy)naphthalen-2-yl)-1H-pyrazol-3-ylamino) pyrazine-2-carbonitrile]	95	100	6	118	44	21.3 (≈ 8.21 µg/mL)	0.933
